Results from paper PMC2289734 (The Journal of Cell Biology, 1992).

Key:
[1] = tested on: export of VSV-G protein from the ER; format: cell-based; details: for morphological effect on VSV-G export/transport: 45 min at 32°C
[2] = tested on: ER to Golgi transport of VSV-G protein; format: cell-based
[3] = tested on: export of VSV-G protein from the ER; details: cited from earlier work

With “guanosine-5'-O-(3-thiophospbate) [GTPTS]” the “VSV-G containing punctate intermediates that contain rab1B” value [1] was less than 10% and the “morphological effect on VSV-G export/transport” value [1] was “concentrated in numerous small, punctate structures”.
For `C/C=C(/C)C(=O)O[C@H]1C(C)=C2[C@H]([C@@H]1OC(=O)CCCCCCC)[C@@](C)(OC(C)=O)C[C@H](OC(=O)CCC)[C@@]1(O)[C@H]2OC(=O)[C@@]1(C)O` [thapsigargan], the “effect on VSV-G export in vitro” value [1] was “no effectof the drug”.
With AlCl3 the “effect on processing of VSV-G to the endo HR form” value [2] was “no effect” and the “morphological effect on VSV-G export/transport” value [1] was “did not inhibit”.
For `C=C1[C@@H](O)[C@@H]2O[C@]3(CC[C@H](/C=C/[C@@H](C)[C@@H]4CC(C)=C[C@@]5(O[C@H](C[C@@](C)(O)C(=O)O)CC[C@H]5O)O4)O3)CC[C@H]2O[C@@H]1[C@@H](O)C[C@H](C)[C@H]1O[C@@]2(CCCCO2)CC[C@H]1C` [OKA, okadaic acid], the “effect on VSV-G protein exit from the ER” value [3] is given as “potently inhibit VSV-G protein exit from the ER”.
